Data as given in US9487515B2, “Compounds modulating c-fms and/or c-kit activity and uses therefor” (Plexxikon Inc., priority 2006, dated 2016).

Molecular target: c-kit (Homo sapiens, UniProt P10721)
Assay: c-kit assays of Examples 40 and 41 (AlphaScreen kinase assays at 10 and 100 μM ATP, 33P-ATP filter assay, M-07e SCF-stimulated proliferation and phosphorylation)

Chain of c-kit (P10721 with tags, fused parts or gaps): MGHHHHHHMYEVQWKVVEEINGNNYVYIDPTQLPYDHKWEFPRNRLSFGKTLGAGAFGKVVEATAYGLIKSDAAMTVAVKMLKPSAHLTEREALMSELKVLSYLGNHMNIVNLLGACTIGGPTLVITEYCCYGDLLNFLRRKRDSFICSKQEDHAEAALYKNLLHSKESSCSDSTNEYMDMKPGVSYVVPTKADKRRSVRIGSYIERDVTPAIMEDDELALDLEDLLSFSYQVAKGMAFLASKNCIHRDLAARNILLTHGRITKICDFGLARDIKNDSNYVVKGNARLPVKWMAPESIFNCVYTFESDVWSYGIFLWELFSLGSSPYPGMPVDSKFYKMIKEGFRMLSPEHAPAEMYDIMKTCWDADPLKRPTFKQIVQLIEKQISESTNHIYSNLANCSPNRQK

SMILES	IC50 [nM]
Cc1nn(C(=O)NCCc2ccccc2F)c(C)c1Cc1c[nH]c2ncccc12 [P-0148, 3,5-Dimethyl-4-(1H-pyrrolo[2,3-b]pyridin-3-ylmethyl)-pyrazole-1-carboxylic acid [2-(2-fluoro-phenyl)-ethyl]-amide]	< 1000
COc1ccc(CNc2ccc(Cc3c[nH]c4ncccc34)cn2)cc1 [P-0004, (4-methoxy-benzyl)-[5-(1H-pyrrolo[2,3-b]pyridin-3-ylmethyl)-pyridin-2-yl]-amine]	< 1000
FC(F)(F)c1cc(CNc2ccc(Cc3c[nH]c4ncccc34)cn2)ccc1Cl [P-0348, (4-Chloro-3-trifluoromethyl-benzyl)-[5-(1H-pyrrolo[2,3-b]pyridin-3-ylmethyl)-pyridin-2-yl]-amine]	< 1000
N#Cc1cnc2[nH]cc(Cc3ccc(NCc4ccccc4OC(F)F)nc3)c2c1 [P-0339, 3-[6-(2-Difluoromethoxy-benzylamino)-pyridin-3-ylmethyl]-1H-pyrrolo[2,3-b]pyridine-5-carbonitrile]	< 1000
Cc1cnc2[nH]cc(Cc3ccc(NCc4ccc(C(F)(F)F)nc4)nc3Cl)c2c1 [P-0234, [6-Chloro-5-(5-methyl-1H-pyrrolo[2,3-b]pyridin-3-ylmethyl)-pyridin-2-yl]-(6-trifluoromethyl-pyridin-3-ylmethyl)-amine]	< 1000
Cc1cnc2[nH]cc(Cc3ccc(NCc4cc(F)ccc4F)nc3)c2c1 [P-0297, (2,5-Difluoro-benzyl)-[5-(5-methyl-1H-pyrrolo[2,3-b]pyridin-3-ylmethyl)-pyridin-2-yl]-amine]	< 1000
Clc1cnc2[nH]cc(Cc3sc(NCc4ccncc4)nc3Cl)c2c1 [P-0237, [4-Chloro-5-(5-chloro-1H-pyrrolo[2,3-b]pyridin-3-ylmethyl)-thiazol-2-yl]-pyridin-4-ylmethyl-amine]	< 1000
FC(F)(F)c1ccccc1CNc1ncc(Cc2c[nH]c3ncc(Cl)cc23)cn1 [P-0262, [5-(5-Chloro-1H-pyrrolo[2,3-b]pyridin-3-ylmethyl)-pyrimidin-2-yl]-(2-trifluoromethyl-benzyl)-amine]	< 1000
c1ccc(OCCN2CCOCC2)c(CNc2ccc(Cc3c[nH]c4ncccc34)cn2)c1 [P-0361, [2-(2-Morpholin-4-yl-ethoxy)-benzyl]-[5-(1H-pyrrolo[2,3-b]pyridin-3-ylmethyl)-pyridin-2-yl]-amine]	< 1000
Clc1ccc(CNc2ccc(Cc3c[nH]c4ncccc34)nn2)cc1 [P-0092, (4-Chloro-benzyl)-[6-(1H-pyrrolo[2,3-b]pyridin-3-ylmethyl)-pyridazin-3-yl]-amine]	< 1000
Fc1ccc(CNc2ncc(Cc3c[nH]c4ncc(Cl)cc34)s2)cc1 [P-0290, [5-(5-Chloro-1H-pyrrolo[2,3-b]pyridin-3-ylmethyl)-thiazol-2-yl]-(4-fluoro-benzyl)-amine]	< 1000
FC(F)(F)Oc1ccccc1CNc1ncc(Cc2c[nH]c3ncc(Cl)cc23)cn1 [P-0402, [5-(5-Chloro-1H-pyrrolo[2,3-b]pyridin-3-ylmethyl)-pyrimidin-2-yl]-(2-trifluoromethoxy-benzyl)-amine]	< 1000
Fc1ccccc1CNc1ccc(Cc2c[nH]c3ncc(Cl)cc23)cn1 [P-0270, [5-(5-Chloro-1H-pyrrolo[2,3-b]pyridin-3-ylmethyl)-pyridin-2-yl]-(2-fluoro-benzyl)-amine]	< 1000
Cc1nc(NCc2ccc(C(F)(F)F)cc2)ccc1Cc1c[nH]c2ncccc12 [P-0013, [6-Methyl-5-(1H-pyrrolo[2,3-b]pyridin-3-ylmethyl)-pyridin-2-yl]-(4-trifluoromethyl-benzyl)-amine]	< 1000
Cc1nn(Cc2ccc(C(F)(F)F)o2)c(C)c1Cc1c[nH]c2ncccc12 [P-0138, 3-[3,5-Dimethyl-1-(5-trifluoromethyl-furan-2-ylmethyl)-1H-pyrazol-4-ylmethyl]-1H-pyrrolo[2,3-b]pyridine]	< 1000
Clc1cccc(CNc2ncc(Cc3c[nH]c4ncccc34)cn2)c1Cl [P-0313, (2,3-Dichloro-benzyl)-[5-(1H-pyrrolo[2,3-b]pyridin-3-ylmethyl)-pyrimidin-2-yl]-amine]	< 1000
Clc1ccccc1CNc1ncc(Cc2c[nH]c3ncccc23)cn1 [P-0301, (2-Chloro-benzyl)-[5-(1H-pyrrolo[2,3-b]pyridin-3-ylmethyl)-pyrimidin-2-yl]-amine]	< 1000
FC(F)(F)Oc1ccccc1CNc1ccc(Cc2c[nH]c3ncccc23)cn1 [P-0322, [5-(1H-Pyrrolo[2,3-b]pyridin-3-ylmethyl)-pyridin-2-yl]-(2-trifluoromethoxy-benzyl)-amine]	< 1000
FC(F)(F)c1ccc(CNc2ncc(Cc3c[nH]c4ncccc34)cn2)cc1 [P-0308, [5-(1H-Pyrrolo[2,3-b]pyridin-3-ylmethyl)-pyrimidin-2-yl]-(4-trifluoromethyl-benzyl)-amine]	< 1000
Fc1ccc(C(F)(F)F)cc1CNc1ccc(Cc2c[nH]c3ncccc23)cn1 [P-0350, (2-Fluoro-5-trifluoromethyl-benzyl)-[5-(1H-pyrrolo[2,3-b]pyridin-3-ylmethyl)-pyridin-2-yl]-amine]	< 1000

More lines, now with the values ahead:

IC50 [nM]	SMILES
< 1000	Fc1nc(NCc2ccc(Cl)cc2)ccc1Cc1c[nH]c2ncc(Cl)cc12 [P-0132, (4-Chloro-benzyl)-[5-(5-chloro-1H-pyrrolo[2,3-b]pyridin-3-ylmethyl)-6-fluoro-pyridin-2-yl]-amine]
< 1000	Fc1c(CNc2ccc(Cc3c[nH]c4ncccc34)cn2)cccc1C(F)(F)F [P-0365, (2-Fluoro-3-trifluoromethyl-benzyl)-[5-(1H-pyrrolo[2,3-b]pyridin-3-ylmethyl)-pyridin-2-yl]-amine]
< 1000	COc1cnc2[nH]cc(Cc3ccc(NCc4ccccc4C(F)(F)F)nc3)c2c1 [P-0326, [5-(5-Methoxy-1H-pyrrolo[2,3-b]pyridin-3-ylmethyl)-pyridin-2-yl]-(2-trifluoromethyl-benzyl)-amine]
< 1000	Clc1cnc2[nH]cc(Cc3sc(NCCc4ccccc4)nc3Cl)c2c1 [P-0244, [4-Chloro-5-(5-chloro-1H-pyrrolo[2,3-b]pyridin-3-ylmethyl)-thiazol-2-yl]-phenethyl-amine]
< 1000	Clc1ccc(CNc2nc(Cl)c(Cc3c[nH]c4ncc(Cl)cc34)s2)cc1 [P-0194, (4-Chloro-benzyl)-[4-chloro-5-(5-chloro-1H-pyrrolo[2,3-b]pyridin-3-ylmethyl)-thiazol-2-yl]-amine]
< 1000	C[C@@H](Nc1ccc(Cc2c[nH]c3ncccc23)cn1)c1ccccc1 [P-0125, ((R)-1-Phenyl-ethyl)-[5-(1H-pyrrolo[2,3-b]pyridin-3-ylmethyl)-pyridin-2-yl]-amine]
< 1000	Fc1cc(Cl)cc(CNc2ccc(Cc3c[nH]c4ncccc34)cn2)c1 [P-0373, (3-Chloro-5-fluoro-benzyl)-[5-(1H-pyrrolo[2,3-b]pyridin-3-ylmethyl)-pyridin-2-yl]-amine]
< 1000	Fc1ccc(F)c(CNc2ccc(Cc3c[nH]c4ncc(Cl)cc34)cn2)c1 [P-0298, [5-(5-Chloro-1H-pyrrolo[2,3-b]pyridin-3-ylmethyl)-pyridin-2-yl]-(2,5-difluoro-benzyl)-amine]
< 1000	COc1ccc(CNc2ccc(Cc3c[nH]c4ncc(C#N)cc34)cn2)cn1 [P-0284, 3-{6-[(6-Methoxy-pyridin-3-ylmethyl)-amino]-pyridin-3-ylmethyl}-1H-pyrrolo[2,3-b]pyridine-5-carbonitrile]
